According to PubChem BioAssay (NCI):
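Values below derive from 48-hour exposures of cells grown in 96-well plates, with endpoints linearly interpolated between the two concentrations bracketing the appropriate inhibition level. The concentration for full growth arrest is given as TGI.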

Experiments:
Experiment in all cases: NCI anticancer screen, dose series, 48 h
HOP-62 NSCLC = tested on: HOP-62 NSCLC
KM12 colon = tested on: KM12 colon
A498 renal = tested on: A498 renal
HCT-116 colon = tested on: HCT-116 colon
RXF 393 renal = tested on: RXF 393 renal
DU-145 prostate = tested on: DU-145 prostate
TK-10 renal = tested on: TK-10 renal
MOLT-4 leukemia = tested on: MOLT-4 leukemia
M14 melanoma = tested on: M14 melanoma
OVCAR-3 ovarian = tested on: OVCAR-3 ovarian
OVCAR-4 ovarian = tested on: OVCAR-4 ovarian
HCT-15 colon = tested on: HCT-15 colon
SF-295 CNS = tested on: SF-295 CNS
SK-MEL-28 melanoma = tested on: SK-MEL-28 melanoma
SK-MEL-5 melanoma = tested on: SK-MEL-5 melanoma
MDA-N = tested on: MDA-N
U251 CNS = tested on: U251 CNS
SW-620 colon = tested on: SW-620 colon
RPMI-8226 leukemia = tested on: RPMI-8226 leukemia
SNB-75 CNS = tested on: SNB-75 CNS
SF-539 CNS = tested on: SF-539 CNS
OVCAR-8 ovarian = tested on: OVCAR-8 ovarian
HCC-2998 colon = tested on: HCC-2998 colon
UACC-257 melanoma = tested on: UACC-257 melanoma
EKVX NSCLC = tested on: EKVX NSCLC
CAKI-1 renal = tested on: CAKI-1 renal
SR leukemia = tested on: SR leukemia
ACHN renal = tested on: ACHN renal
T-47D breast = tested on: T-47D breast
SNB-19 CNS = tested on: SNB-19 CNS
NCI-H23 lung = tested on: NCI-H23 lung
NCI-H460 lung = tested on: NCI-H460 lung
MDA-MB-231 breast = tested on: MDA-MB-231 breast
HOP-92 NSCLC = tested on: HOP-92 NSCLC
A549 NSCLC = tested on: A549 NSCLC
OVCAR-5 ovarian = tested on: OVCAR-5 ovarian
UO-31 renal = tested on: UO-31 renal
MALME-3M melanoma = tested on: MALME-3M melanoma
COLO 205 colon = tested on: COLO 205 colon
SN12C renal = tested on: SN12C renal
SK-OV-3 ovarian = tested on: SK-OV-3 ovarian
LOX IMVI melanoma = tested on: LOX IMVI melanoma
HT29 colon = tested on: HT29 colon
UACC-62 melanoma = tested on: UACC-62 melanoma
MCF7 breast = tested on: MCF7 breast
PC-3 prostate = tested on: PC-3 prostate
SF-268 CNS = tested on: SF-268 CNS
786-0 renal = tested on: 786-0 renal
HS 578T breast = tested on: HS 578T breast
NCI-H522 lung = tested on: NCI-H522 lung
CCRF-CEM leukemia = tested on: CCRF-CEM leukemia
K-562 leukemia = tested on: K-562 leukemia
IGROV1 ovarian = tested on: IGROV1 ovarian
HL-60(TB) leukemia = tested on: HL-60(TB) leukemia
SK-MEL-2 melanoma = tested on: SK-MEL-2 melanoma
MDA-MB-435 = tested on: MDA-MB-435
NCI-H226 lung = tested on: NCI-H226 lung
NCI/ADR-RES ovarian = tested on: NCI/ADR-RES ovarian
BT-549 breast = tested on: BT-549 breast

Compound: CC(C)(C)NCc1cc(Nc2ccnc3cc(Cl)ccc23)cc(-c2ccc(Cl)cc2)c1O
- TGI (HOP-62 NSCLC): 6.38 µM
- TGI (KM12 colon): 10.4 µM
- TGI (A498 renal): 11.5 µM
- TGI (HCT-116 colon): 5.79 µM
- TGI (RXF 393 renal): 4.66 µM
- TGI (DU-145 prostate): 15 µM
- TGI (TK-10 renal): 7.76 µM
- TGI (MOLT-4 leukemia): 4.55 µM
- TGI (M14 melanoma): 4 µM
- TGI (OVCAR-3 ovarian): 8.75 µM
- TGI (OVCAR-4 ovarian): 14.5 µM
- TGI (HCT-15 colon): 9.96 µM
- TGI (SF-295 CNS): 6.23 µM
- TGI (SK-MEL-28 melanoma): 3.26 µM
- TGI (SK-MEL-5 melanoma): 3.15 µM
- TGI (MDA-N): 3.19 µM
- TGI (U251 CNS): 8.65 µM
- TGI (SW-620 colon): 5.3 µM
- TGI (RPMI-8226 leukemia): 4.12 µM
- TGI (SNB-75 CNS): 5.13 µM
- TGI (SF-539 CNS): 3.28 µM
- TGI (OVCAR-8 ovarian): 14.8 µM
- TGI (HCC-2998 colon): 3.82 µM
- TGI (UACC-257 melanoma): 4.11 µM
- TGI (EKVX NSCLC): 14.8 µM
- TGI (CAKI-1 renal): 10.6 µM
- TGI (SR leukemia): 4.97 µM
- TGI (ACHN renal): 15 µM
- TGI (T-47D breast): 13.3 µM
- TGI (SNB-19 CNS): 18.2 µM
- TGI (NCI-H23 lung): 14 µM
- TGI (NCI-H460 lung): 8.18 µM
- TGI (MDA-MB-231 breast): 11.7 µM
- TGI (HOP-92 NSCLC): 7.08 µM
- TGI (A549 NSCLC): 20.6 µM
- TGI (OVCAR-5 ovarian): 16.3 µM
- TGI (UO-31 renal): 18.1 µM
- TGI (MALME-3M melanoma): 3.28 µM
- TGI (COLO 205 colon): 3.35 µM
- TGI (SN12C renal): 8.9 µM
- TGI (SK-OV-3 ovarian): 16.9 µM
- TGI (LOX IMVI melanoma): 5.64 µM
- TGI (HT29 colon): 4.42 µM
- TGI (UACC-62 melanoma): 3.85 µM
- TGI (MCF7 breast): 3.13 µM
- TGI (PC-3 prostate): 8.22 µM
- TGI (SF-268 CNS): 16.2 µM
- TGI (786-0 renal): 3.98 µM
- TGI (HS 578T breast): 6.37 µM
- TGI (NCI-H522 lung): 7.51 µM
- TGI (CCRF-CEM leukemia): 5.77 µM
- TGI (K-562 leukemia): 2.75 µM
- TGI (IGROV1 ovarian): 7.18 µM
- TGI (HL-60(TB) leukemia): 4.01 µM
- TGI (SK-MEL-2 melanoma): 4.02 µM
- TGI (MDA-MB-435): 3.64 µM
- TGI (NCI-H226 lung): 22.3 µM
- TGI (NCI/ADR-RES ovarian): 14.4 µM

Compound: CC(=O)Oc1ccc2c(c1)Oc1cc(C(C)=O)ccc1C21OC(=O)c2ccccc21 (configuration not stated)
- TGI (HOP-62 NSCLC): > 100 µM
- TGI (KM12 colon): > 100 µM
- TGI (A498 renal): > 100 µM
- TGI (HCT-116 colon): > 100 µM
- TGI (RXF 393 renal): > 100 µM
- TGI (DU-145 prostate): > 100 µM
- TGI (TK-10 renal): > 100 µM
- TGI (MOLT-4 leukemia): > 100 µM
- TGI (M14 melanoma): > 100 µM
- TGI (OVCAR-3 ovarian): > 100 µM
- TGI (OVCAR-4 ovarian): > 100 µM
- TGI (HCT-15 colon): > 100 µM
- TGI (SF-295 CNS): > 100 µM
- TGI (SK-MEL-28 melanoma): > 100 µM
- TGI (SK-MEL-5 melanoma): > 100 µM
- TGI (MDA-N): > 100 µM
- TGI (U251 CNS): > 100 µM
- TGI (SW-620 colon): > 100 µM
- TGI (RPMI-8226 leukemia): > 100 µM
- TGI (BT-549 breast): > 100 µM
- TGI (SNB-75 CNS): > 100 µM
- TGI (OVCAR-8 ovarian): > 100 µM
- TGI (HCC-2998 colon): > 100 µM
- TGI (UACC-257 melanoma): > 100 µM
- TGI (EKVX NSCLC): > 100 µM
- TGI (CAKI-1 renal): > 100 µM
- TGI (ACHN renal): > 100 µM
- TGI (T-47D breast): > 100 µM
- TGI (SNB-19 CNS): > 100 µM
- TGI (NCI-H23 lung): > 100 µM
- TGI (NCI-H460 lung): > 100 µM
- TGI (MDA-MB-231 breast): > 100 µM
- TGI (HOP-92 NSCLC): > 100 µM
- TGI (A549 NSCLC): > 100 µM
- TGI (OVCAR-5 ovarian): > 100 µM
- TGI (UO-31 renal): > 100 µM
- TGI (MALME-3M melanoma): > 100 µM
- TGI (COLO 205 colon): > 100 µM
- TGI (SN12C renal): > 100 µM
- TGI (SK-OV-3 ovarian): > 100 µM
- TGI (LOX IMVI melanoma): > 100 µM
- TGI (HT29 colon): > 100 µM
- TGI (UACC-62 melanoma): > 100 µM
- TGI (MCF7 breast): > 100 µM
- TGI (PC-3 prostate): > 100 µM
- TGI (SF-268 CNS): > 100 µM
- TGI (786-0 renal): > 100 µM
- TGI (NCI-H522 lung): > 100 µM
- TGI (K-562 leukemia): > 100 µM
- TGI (IGROV1 ovarian): > 100 µM
- TGI (HL-60(TB) leukemia): > 100 µM
- TGI (SK-MEL-2 melanoma): > 100 µM
- TGI (MDA-MB-435): > 100 µM
- TGI (NCI/ADR-RES ovarian): > 100 µM
